Experimental data reported in patent US20240376094A2, “SELECTIVE BCL-XL PROTAC COMPOUNDS AND METHODS OF USE” (Les Laboratoires Servier, priority 2021, published 2024).

Columns and labels:
Type in all cases: cell-based
[1] = system: NCI-H1650; assay: CellTiter-Glo 3D proliferation assay, NCI-H1650 spheroids; conditions: Homo sapiens, NCI-H1650, 120 h, 5 days; for Emax: read-out: NCI-H1650 Span (Amax)
In short: (§1)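 Both lines grown in RPMI-1640 + 10% FBS. COR-L105 plated flat at 1,000 cells/well overnight; NCI-H1650 grown as spheroids, 3,000 cells/well, 72 h. Compounds at 0.508 nM-10 μM final for 5 days, 37° C. ATP read by CellTiter-Glo (3D version for spheroids); IC50 from variable-slope fit normalized to untreated cells.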

[2] = biological target: T1, endogenous BCL-xL (Homo sapiens, UniProt Q07817); assay: Degradation of endogenous BCL-xL in COR-L105 (ProteinSimple Jess); conditions: COR-L105, 24 h, COR-L105, dose 300 nM, read-out: % BCL-xL vs. Untreated, COR-L105
T1 construct: endogenous in cells; host or cells: COR-L105 (ECACC No. 92031918); NCI-H1650 (ATCC No. CRL-5883)
T1 sequence (Q07817 whole entry): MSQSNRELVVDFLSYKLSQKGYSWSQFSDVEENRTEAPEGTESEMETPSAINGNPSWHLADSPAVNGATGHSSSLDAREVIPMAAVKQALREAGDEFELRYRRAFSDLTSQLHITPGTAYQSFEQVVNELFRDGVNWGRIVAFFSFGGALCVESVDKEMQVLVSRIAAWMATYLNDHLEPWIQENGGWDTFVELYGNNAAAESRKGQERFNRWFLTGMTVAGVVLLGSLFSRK
Experimental: The BCL-xL degrader low molecular weight compounds were tested against two endogenous cancer cell lines: • COR-L105: ECACC No. 92031918 cultured in RPMI-1640+10% FBS • NCI-H1650: (ATCC No. CRL-5883 cultured in RPMI-1640+10% FBS
The ability of the BCL-xL degrader low molecular weight compounds to degrade endogenous BCL-xL was assessed using the ProteinSimple 2-40 kDa Jess Separation Module.
Cell lines were cultured in media that is optimal for their growth at 5% CO2, 37° C. in a tissue culture incubator. Prior to seeding for the degradation assay, the cells were split at least 2 days before the assay to ensure optimal growth density. On the day of seeding, adherent cells were lifted off tissue culture flasks using 0.25% trypsin. Cell viability and cell density were determined using a cell counter (Vi-Cell XR Cell Viability Analyzer, Beckman Coulter). Cells with higher than 85% viability were seeded for the assay.
The COR-L105 and the NCI-H1650 cell line were seeded in 6-well clear TC-treated multiple well plates (Costar® cat. #3516). Cells were seeded at a density of 2,000,000 cells per well in 2.5 mL of standard growth media. Plates were incubated at 5% CO2, 37° C. overnight in a tissue culture incubator. On the day of dosing, BCL-xL degrader low molecular weight compounds and a BCL-xL inhibitor control were prepared at 6× in standard growth media. The prepared drug treatments were then added to the cells resulting in a final concentration of 100-300 nM and a final volume of 3.0 mL per well. A control well of untreated cells was also included in the study. Each drug concentration was tested in singlet. Plates were incubated at 5% CO2, 37° C. for 24 hours in a tissue culture incubator.
After 24 hours, the adherent cells were lifted off tissue culture plates using 0.25% trypsin. Standard growth media was added to quench the trypsin and centrifuged for 5 minutes at 1500 rpm. Cell pellets were washed once with cold PBS and centrifuged for 5 minutes at 1500 rpm. Cells were then washed with 1 mL cold PBS and transferred to a 1.5 mL eppendorf tube. Cells were centrifuged for 10 minutes at ≥10,000 g at 4° C. in a benchtop mini-centrifuge. The entire supernatant was discarded and cells were resuspended thoroughly in 50 μL of RIPA lysis buffer, generated by the manufacturer's protocol (ProteinSimple, Cat. #CBS401: Lysis Kit—RIPA Buffer for Charge Assays). Lysates were incubated on ice for 30 minutes. Following incubation, lysates were spun in a benchtop mini-centrifuge for 15 minutes at full speed at 4° C. Supernatant was carefully transferred to a new eppendorf tube for downstream analysis.
Protein was quantified using a Pierce™ BCA Protein Assay Kit (ThermoFisher, cat #23225) following the manufacturer's instructions. A standard curve was prepared by adding 25 μL of each concentration of reference samples from a Pierce™ Bovine Serum Albumin Standard Pre-Diluted Set (ThermoFisher, cat #23208). Each reference sample was run in duplicate. Testing samples were prepared by diluting cell lysates 1:5 in UltraPure™ DNase/RNase-Free Distilled Water and tested in duplicates of 25 μL each. The BCA working reagent was prepared by addition of 50 parts of BCA Reagent A with 1 part of BCA Reagent B. For each testing well, 200 μL of BCA working reagent was added. The plate was incubated at 37° C. for 30 minutes. A SpectraMax M Series Multi-Mode Microplate Reader was used to measure the absorbance at 562 nm. A standard curve generated by the Pierce™ Bovine Serum Albumin Standard Pre-Diluted Set was used to normalize and calculate the BCA concentration of cell lysates. Only values that fell within the range of the standard curve were accepted for quantification.
The ProteinSimple 2-40 kDa Jess Separation Module was used to detect BCL-xL degradation in treated versus untreated lysates following the manufacturer's instructions (25-Capillary Cartridge, 8 pack, 2-40 kDa, cat #SM W012). […]

[3] = system: COR-L105; assay: CellTiter-Glo proliferation assay, COR-L105; conditions: Homo sapiens, COR-L105, 120 h, COR-L105, 5 days; for Emax: read-out: COR-L105 Span (max)
In short: as §1

| SMILES | IC50 [1] | Emax [1] | remaining activity at 0.3 µM [2] | IC50 [3] | Emax [3] |
| --- | --- | --- | --- | --- | --- |
| Cc1ncsc1-c1ccc([C@H](C)NC(=O)[C@@H]2C[C@@H](O)CN2C(=O)[C@@H](NC(=O)CCCCCC(=O)N2CCN(CC#Cc3ccc(OCCCc4sc(N5CCCc6c5nnc(Nc5nc7ccccc7s5)c6C)nc4C(=O)O)c(F)c3)CC2)C(C)(C)C)cc1 [Example 34, 2-(3-(benzo[d]thiazol-2-ylamino)-4-methyl-6,7-dihydropyrido [2,3-c]pyridazin-8(5H)-yl)-5-(3-(2-fluoro-4-(3-(4-(7-(((S)-1-((2S,4R)-4-hydroxy-2-(((S)-1-(4-(4-methylthiazol-5-yl)phenyl)ethyl)carbamoyl)pyrrolidin-1-yl)-3,3-dimethyl-1-oxobutan-2-yl)amino)-7-oxoheptanoyl)piperazin-1-yl)prop-1-yn-1-yl)phenoxy)propyl)thiazole-4-carboxylic acid] | 7.67 nM | 55.4% | 74.5% | 74.2 nM | 82.7% |
| Cc1ncsc1-c1ccc(CNC(=O)[C@@H]2C[C@@H](O)CN2C(=O)[C@@H](NC(=O)C2(F)CC2)C(C)(C)C)c(OCC(=O)N(C)CCCCCN2CCN(CC#Cc3ccc(OCCCc4sc(N5CCCc6c5nnc(Nc5nc7ccccc7s5)c6C)nc4C(=O)O)c(F)c3)CC2)c1 [Example 54, 2-(3-(benzo[d]thiazol-2-ylamino)-4-methyl-6,7-dihydropyrido [2,3-c]pyridazin-8(5H)-yl)-5-(3-(2-fluoro-4-(3-(4-(5-(2-(2-(((2S,4R)-1-((S)-2-(1-fluorocyclopropane-1-carboxamido)-3,3-dimethylbutanoyl)-4-hydroxypyrrolidine-2-carboxamido)methyl)-5-(4-methylthiazol-5-yl)phenoxy)-N-methylacetamido)pentyl)piperazin-1-yl)prop-1-yn-1-yl)phenoxy)propyl)thiazole-4-carboxylic acid] | 5.75 nM | 76.7% | 47.9% | 31.6 nM | 91.9% |
| Cc1ncsc1-c1ccc(CNC(=O)[C@@H]2C[C@@H](O)CN2C(=O)[C@@H](NC(=O)C2(F)CC2)C(C)(C)C)c(OCC(=O)N2CCN(CCOC34CC5(C)CC(C)(CC(Cn6ncc(-c7ccc(N8CCCc9c8nnc(Nc8nc%10ccccc%10s8)c9C)nc7C(=O)O)c6C)(C5)C3)C4)CC2)c1 [Example 50, 6-(3-(benzo[d]thiazol-2-ylamino)-4-methyl-6,7-dihydropyrido [2,3-c]pyridazin-8(5H)-yl)-3-(1-(((1r,3s,5R,7S)-3-(2-(4-(2-(2-(((2S,4R)-1-((S)-2-(1-fluorocyclopropane-1-carboxamido)-3,3-dimethylbutanoyl)-4-hydroxypyrrolidine-2-carboxamido)methyl)-5-(4-methylthiazol-5-yl)phenoxy)acetyl)piperazin-1-yl)ethoxy)-5,7-dimethyladamantan-1-yl)methyl)-5-methyl-1H-pyrazol-4-yl)picolinic acid] | 25.9 nM | 93.8% | 88% | 287 nM | 90.2% |
| Cc1ncsc1-c1ccc([C@H](C)NC(=O)[C@@H]2C[C@@H](O)CN2C(=O)[C@@H](NC(=O)CCCCCCCC(=O)N2CCN(CC#Cc3ccc(OCCCc4sc(N5CCCc6c5nnc(Nc5nc7ccccc7s5)c6C)nc4C(=O)O)c(F)c3)CC2)C(C)(C)C)cc1 [Example 38, 2-(3-(benzo[d]thiazol-2-ylamino)-4-methyl-6,7-dihydropyrido [2,3-c]pyridazin-8(5H)-yl)-5-(3-(2-fluoro-4-(3-(4-(9-(((S)-1-((2S,4R)-4-hydroxy-2-(((S)-1-(4-(4-methylthiazol-5-yl)phenyl)ethyl)carbamoyl)pyrrolidin-1-yl)-3,3-dimethyl-1-oxobutan-2-yl)amino)-9-oxononanoyl)piperazin-1-yl)prop-1-yn-1-yl)phenoxy)propyl)thiazole-4-carboxylic acid] | 8.15 nM | 87.9% | 22.1% | 83.1 nM | 87.4% |
